Measurements taken from US7622551B2, “Leukocyte stimulating peptides” (POSCO, priority 2004, dated 2009).
Where no end group is shown, it is not given here.

How the values were obtained:
[1] = tested on: differentiated HL60 cells; assay: [Ca2+]i increase in fura-2 loaded dHL60 cells; assay type: cell-based, human; conditions: for [Ca^2+]i: differentiated HL60 cells, fura-2, 1 μM of peptide
Protocol: (§1) U937 (human histiocytic lymphoma cells), HL60 (human promyelocytic leukemia cells), Raw 264.7 (mouse macrophage), Jurkat (human acute T cell leukemia), PC12 (rat adrenal pheochromocytoma cells), 3Y1 (Rat embryonic fibroblasts), 3T3L1 (preadipocytes), and NCI-H292 (human mucoepidermoid pulmonary carcinoma cells) were obtained from the American Type Culture Collection (Rockville, Md.) and maintained as recommended. FPR- or FPRL1 expressing RBL-2H3 cells were cultured as described previously (He et al. J. Immunol. 2000. 165: 4598-4605). Cells were maintained at about 1×10^6 cells/ml under standard incubator conditions (humidified atmosphere, 95% air, 5% CO2, at 37° C.). HL60 cells were induced to differentiate into the granulocyte phenotype by adding dimethylsulfoxide (DMSO) (final concentration 1.25%, v/v) for 4 days to the culture medium, as described previously (Itoh et al. Blood. 1998. 92: 1432-1441).
(§2) The level of [Ca^2+]i was determined using Grynkiewicz's method using fura-2/AM (Grynkiewicz et al. J. Biol. Chem. 1985. 260: 3440-3550). Briefly, prepared cells were incubated with 3 μM of fura-2/AM at 37° C. for 50 min in serum-free RPMI 1640 medium under continuous stirring. 2×10^6 cells were aliquoted for each assay in Ca^2+ free Locke's solution (154 mM NaCl, 5.6 mM KCl, 1.2 mM MgCl2, 5 mM HEPES, pH 7.3, 10 mM glucose, and 0.2 mM EGTA). Fluorescence changes were measured at the dual excitation wavelength of 340 nm and 380 nm, and the calculated fluorescence ratio was translated into [Ca^2+]i.

[2] = tested on: human monocytes; assay: Chemotaxis assay (modified Boyden chamber), monocytes; assay type: cell-based; conditions: FIG. 6B; control peptide at concentrations less than 10 μM
Protocol: FIGS. 6A and 6B show chemotactic effect of peptides. Assays were performed using a modified Boyden chamber assay, as described in the Examples. Isolated human neutrophils (A) or monocytes (B) (1×10^6 cells/ml in serum free RPMI) were added to the upper wells of a 96-well chemotaxis chamber and migration across a 3 μm pore size (5 μm for monocytes) polycarbonate membrane was assessed after 2 hrs incubation at 37° C. The numbers of migrated cells were determined by counting them in a high power field (400×). Results are presented as means±S.E. of three independent experiments each performed in duplicate.
Chemotaxis assays were performed using multiwell chambers (Neuroprobe Inc., Gaithersburg, Md.) (Bae et al. Blood. 2001. 97: 2854-2862). Briefly, prepared human monocytes were suspended in RPMI at a concentration of 1×10^6 cells/ml, and 25 μl of the suspension was then placed onto the upper well of a chamber separated by a 5 μm polyhydrocarbon filter (3 μm pores size not polyvinylpyrrolidone coated, as is needed for neutrophils) from peptides or N-formyl-methionyl-leucyl-phenylalanine (fMLF) in the lower well. After incubation for 2 hours (90 minutes for neutrophils) at 37° C., non-migrated cells were removed by scraping, and cells that migrated across the filter were dehydrated, fixed, and stained with hematoxylin (Sigma, St. Louis, Mo.). Stained cells were counted in five randomly chosen high power fields (HPF) (400×) (Bae et al. Blood. 2001. 97: 2854-2862).

[3] = biological target: T1, FPRL1 (Homo sapiens, UniProt P25090); assay: [Ca2+]i increase in FPRL1-expressing RBL-2H3 cells; assay type: cell-based; conditions: 10 μM of each peptide (FIG. 7)
T1 construct: expressed in transfected cells; host or cells: RBL-2H3
T1 sequence (P25090 1-351): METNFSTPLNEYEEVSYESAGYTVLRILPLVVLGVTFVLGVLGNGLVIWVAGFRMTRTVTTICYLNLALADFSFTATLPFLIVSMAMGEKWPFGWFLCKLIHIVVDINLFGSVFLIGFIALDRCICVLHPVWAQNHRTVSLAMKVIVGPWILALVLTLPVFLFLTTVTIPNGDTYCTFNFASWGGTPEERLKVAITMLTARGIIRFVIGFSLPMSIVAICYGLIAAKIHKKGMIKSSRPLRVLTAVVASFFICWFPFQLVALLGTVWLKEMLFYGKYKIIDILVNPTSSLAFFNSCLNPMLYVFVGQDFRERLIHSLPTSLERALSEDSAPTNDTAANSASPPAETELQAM
Protocol: as §1, §2

[4] = biological target: T2, FPR (Homo sapiens, UniProt P21462); assay: [Ca2+]i increase in FPR-expressing RBL-2H3 cells; assay type: cell-based; conditions: data not shown
T2 construct: expressed in transfected cells; host or cells: RBL-2H3
T2 sequence (P21462 1-350): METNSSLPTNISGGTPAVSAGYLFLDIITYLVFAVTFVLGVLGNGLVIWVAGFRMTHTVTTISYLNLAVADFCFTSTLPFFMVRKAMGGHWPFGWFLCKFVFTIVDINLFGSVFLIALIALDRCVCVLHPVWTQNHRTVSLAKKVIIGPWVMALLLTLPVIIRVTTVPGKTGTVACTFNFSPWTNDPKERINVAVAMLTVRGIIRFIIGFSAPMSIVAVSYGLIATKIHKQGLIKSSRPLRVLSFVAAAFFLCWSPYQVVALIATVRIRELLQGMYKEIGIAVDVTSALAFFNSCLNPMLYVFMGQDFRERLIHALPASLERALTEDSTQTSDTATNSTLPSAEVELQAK
Protocol: as §1, §2

[5] = tested on: undifferentiated HL60 cells; assay: [Ca2+]i increase in undifferentiated HL60 cells; assay type: cell-based, human; conditions: for [Ca^2+]i increase in undifferentiated HL60 cells: peptides 10 μM (FIG. 8)
Protocol: as §1, §2

[6] = tested on: ERK; assay: ERK phosphorylation in dHL60 cells (anti-phospho-ERK immunoblot); assay type: cell-based, human; conditions: for Phosphorylation level of ERK: dHL60 cells (FIG. 9); for Effect of GF109203X (PKC) on peptide-induced ERK phosphorylation / Effect of LY294002 (PI3K) on peptide-induced ERK phosphorylation / Effect of PD98059 (MEK) on peptide-induced ERK phosphorylation / Time of maximal ERK activation after stimulation: dHL60 cells; for Effect of GF109203X (PKC) on peptide-induced ERK phosphorylation: GF109203X (5 μM) 15 minutes; for Effect of GF109203X (PKC) on peptide-induced ERK phosphorylation / Effect of LY294002 (PI3K) on peptide-induced ERK phosphorylation / Effect of PD98059 (MEK) on peptide-induced ERK phosphorylation: 1 μM peptide 5 minutes; for Effect of LY294002 (PI3K) on peptide-induced ERK phosphorylation: LY294002 (50 μM) 15 minutes; for Effect of PD98059 (MEK) on peptide-induced ERK phosphorylation: PD98059 (50 μM) 60 minutes; for Time of maximal ERK activation after stimulation: data not shown
Protocol: Each sample (30 μg of protein) was subjected to 8% SDS-PAGE, and phosphorylated ERK was quantified by immunoblot analysis with anti-phospho-ERK antibody. The results shown are from a single experiment representative of at least three independent experiments.
Extracellular signal regulated protein kinase (ERK) is a well-known intracellular enzyme that mediates diverse cellular responses (Sugden et al. Cell Signal. 1997. 9: 337-351). […] To compare the intracellular signaling involving these 4 peptides, dHL60 cells were pretreated either with LY294002 (50 μM), GF109203X (5 μM), or PD98059 (50 μM) or left untreated as a control. After being incubated for the indicated periods (15 minutes for LY294002 and GF109203X, 60 minutes for PD98059), the cells were stimulated with 1 μM of each peptide for 5 minutes.

Substance	[Ca^2+]i [1] [nM]	Cellular chemotaxis in human monocytes (in words) [2]	[Ca^2+]i increase in FPRL1-expressing RBL-2H3 cells [3]	[Ca^2+]i in FPR-expressing RBL-2H3 cells / ligand for FPR [4]	[Ca^2+]i increase in undifferentiated HL60 cells [5]	Phosphorylation level of ERK [6]	Effect of GF109203X (PKC) on peptide-induced ERK phosphorylation [6]	Effect of LY294002 (PI3K) on peptide-induced ERK phosphorylation [6]	Effect of PD98059 (MEK) on peptide-induced ERK phosphorylation [6]	Time of maximal ERK activation after stimulation [6] [min]	Concentration of maximal activity, [Ca^2+]i increase ([1]; dHL60 cells, data not shown)	Effect of PTX on peptide-stimulated calcium signaling ([5]; undifferentiated HL60 cells, data not shown)
RKYHVM-NH2 [Peptide P14]	85 ± 9.5	induced cellular chemotaxis	induced calcium increase	not for FPR	did not affect	dramatic increase	blocked	blocked	blocked	5	–	–
MKYYKM-NH2 [Peptide P21]	122 ± 15.7	induced cellular chemotaxis	induced calcium increase	not for FPR	did not affect	dramatic increase	–	PI3K and MEK-dependency	PI3K and MEK-dependency	5	–	–
MKYYYM-NH2 [Peptide P24]	165 ± 23.4	induced cellular chemotaxis	induced calcium increase	not for FPR	dramatically induced	dramatic increase	not by GF109203X	partially blocked	–	5	approximately 3 μM	partially inhibited
